Assay results: patent US7410986B2, “4-6-diphenyl pyridine derivatives as antiinflammatory agents” (Bayer Aktiengesellschaft, priority 2000, dated 2008)
Where a name gives a salt, the structure may show the parent alone. Read-outs that look alike come from different tables or passages of the source.

Legend:
[1] = tested on: RANTES production in response to TNF-α from A549 cells; experiment: RANTES production in response to TNF-α from A549 cells; assay type: cell-based, human; details: 100 ng/ml TNF-α, compounds of about 40 to 90% purity, read-out: Cellular activity grade (A549, IC50)
human IKK-β = biological target: T1, human IKK-β (Homo sapiens, UniProt O14920); experiment: IKK-β kinase inhibitory assay; assay type: biochemical; details: compounds of about 40 to 90% purity, read-out: In vitro activity grade (invitro, IC50)
T1 construct: A cDNA fragment encoding human IKK-β open reading frame was generated by PCR; His; made in house; host or cells: Sf21 insect cells (baculovirus); the GST-IκBα substrate was made in E. coli
T1 sequence (O14920 1-756): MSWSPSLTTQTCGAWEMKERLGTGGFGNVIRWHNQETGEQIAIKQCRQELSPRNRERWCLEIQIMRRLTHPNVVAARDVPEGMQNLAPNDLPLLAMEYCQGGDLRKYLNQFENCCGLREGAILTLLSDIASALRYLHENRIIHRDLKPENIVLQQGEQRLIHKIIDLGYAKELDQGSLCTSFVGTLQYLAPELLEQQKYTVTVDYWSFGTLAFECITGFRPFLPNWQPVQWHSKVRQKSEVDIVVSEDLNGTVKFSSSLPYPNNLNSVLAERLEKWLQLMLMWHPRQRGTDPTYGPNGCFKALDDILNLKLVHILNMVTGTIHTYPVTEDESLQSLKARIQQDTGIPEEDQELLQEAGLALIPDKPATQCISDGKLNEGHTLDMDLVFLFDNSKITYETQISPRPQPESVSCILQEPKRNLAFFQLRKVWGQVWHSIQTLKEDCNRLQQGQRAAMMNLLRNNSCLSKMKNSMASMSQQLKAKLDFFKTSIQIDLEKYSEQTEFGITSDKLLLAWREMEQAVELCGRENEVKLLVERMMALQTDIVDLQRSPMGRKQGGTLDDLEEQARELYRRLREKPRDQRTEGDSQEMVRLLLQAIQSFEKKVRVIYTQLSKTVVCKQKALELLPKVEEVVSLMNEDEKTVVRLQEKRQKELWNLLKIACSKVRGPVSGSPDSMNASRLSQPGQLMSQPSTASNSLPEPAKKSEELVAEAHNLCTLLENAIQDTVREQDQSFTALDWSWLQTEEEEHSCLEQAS
Description: IKK-β Kinase Inhibitory Assay.
• (1) Preparation of IKK-β Kinase Protein. • A cDNA fragment encoding human IKK-β open reading frame was generated by PCR with the use of a pair of primers designed from the published sequence (Woronicz J D et al. (1997) Science 278,866-869). A template was obtained from Quickclone cDNA (Clontech) using Elongase™ Amplification kit (Life Technologies). The DNA fragments generated by PCR were gel-purified and subcloned into pBluescript. The cDNA fragment cloned in pBluescript was inserted into pcDNA3.1/His C KpnI/NotI, and transferred into pVL1393 SmaI/XbaI (Pharmingen) to construct a baculovirus transfer vector. Then the vector, together with the linearized baculovirus (BaculoGold™, Pharmingen) was used to transfect Sf21 cells (Invitrogen, San Diego, Calif.). Generated recombinant baculovirus was cloned and amplified in Sf21 cells, grown in TNM-FH insect cell medium (Life Technologies, Inc.) supplemented with 10% FCS, […] Gentamycin, 0.1% Pluronic F-68 (Life Technologies, Inc.) as suspension culture (200 ml in 1 L Erlenmeyer flask; 27° C.; 130 rpm). Sf21 cells were infected with this amplified virus with a multiplicity of infection of 5 following standard protocols (Crossen R, Gruenwald S (1997) Baculovirus Expression Vector System Instruction Manual, Pharmingen Corporation) and harvested 48 hrs. later. The cells were lysed to obtain the produced chimeric protein of IKK-β kinase fused by histidine (His-tagged IKK-beta). • (2) The Preparation of Purified GST-IκBα Fusion Proteins • An expression vector containing the nucleotide sequence encoding fusion protein of GST with amino acid residues 1 to 54 of IκBα under the control of an IPTG-inducible promoter was constructed. The expression vector was introduced in E. coli and the transformant was cultured and lysed to obtain a GST-IκBα fusion protein. Then the resulting GST-IκBα fusion protein was purified and biotinated for kinase assay. • (3) The Measurement of IKK-β Kinase Activity • The 96-well format kinase assay of IKK-β was performed to test the inhibitory activity of the compounds of the present invention. First, 5 μl of a test compound was put in the presence of 2.5% dimethyl sulfoxide (DMSO) in each well in a U-bottomed 96-well plate (Falcon). For control wells of background (BG) and total phosphorylation (TP), 5 μl of 2.5% DMSO was put. Recombinant IKK-β (final 0.6 μg/ml) and bio-GST-IκBα (1-54) (final 0.2 μM) were diluted in 25 μl of 2×kinase buffer β (40 mM Tris-HCl, pH 7.6, 40 mM MgCl2, 40 mM β-glycerophosphate, 40 mM p-nitrophenyl-phosphate, 2 mM EDTA, 40 mM creatine phosphate, 2 mM DTT, 2 mM Na3VO4, 0.2 mg/ml BSA and 0.8 mM phenylmethylsulfonyl fluoride) and transferred to the 96-well plate. Bio-GST-IκBα (1-54) in 25 μl of 2×kinase buffer β without IKK-β was transferred to BG wells. Then 20 μl of 12.5 μM ATP, 62.5 μCi/ml [γ-^33P] ATP (Amersham Pharmacia Biotech) was added and the resulting mixture was incubated for 2 hrs. at room temperature. The kinase reactions were terminated by the addition of 150 μl of termination buffer (100 mM EDTA, 1 mg/ml BSA, 0.2 mg NaN3). One handred and fifty μl of the sample was transferred to a streptavidin-coated, white MTP (Steffens Biotechniche Analysen GmbH #08114E14. FWD) to capture the biotinylated substrates. After 1 hr. of incubation, non-bound radioactivity was eliminated by washing the wells five times with 300 μl of washing buffer including 0.9% NaCl and 0.1% (w/v) Tween-20 with the use of a MW-96 plate washer (BioTec). The bound radioactivity was determined after the addition of 170 μl MicroScint-PS scintillation cocktail (Packard) using a TopCount scintillation counter. Syk Tyrosine Kinase Inhibitory Assay for Selectivity. • (1) Preparation of Syk Protein • A cDNA fragment encoding human Syk openreading frame was cloned from total RNA of human Burkitt's lymphoma B cell lines, Raji (American Type Culture Collection), with the use of RT-PCR method. […]

IC50 ([1]; Homo sapiens, A549, 24 h) [µM] | IC50 (human IKK-β) [µM] | IC50 ([1]; 24 hrs) [µM] | Structure (SMILES)
1 to 10 | 2 to 10 | – | COCCNCC(=O)Nc1cc(-c2cc(-c3ccccc3O)nc(N)c2C#N)ccc1OCC1CC1 [Example 4-32]
> 10 | 0.5 to 2 | – | N#Cc1c(-c2ccc(C(=O)NCCN3CCCCC3)cc2)cc(-c2ccccc2O)nc1N [Example 6-02]
1 to 10 | 0.5 to 2 | – | CCCNCC(=O)Nc1cccc(-c2cc(-c3ccccc3O)nc(N)c2C#N)c1 [Example 4-19]
1 to 10 | 0.5 to 2 | – | N#Cc1c(-c2cccc(NC(=O)CN3CCN(CCO)CC3)c2)cc(-c2ccccc2O)nc1N [Example 4-08]
> 10 | 2 to 10 | – | N#Cc1c(-c2cccc(NC(=O)CCN3CCC(C(=O)O)CC3)c2)cc(-c2ccccc2O)nc1N [Example 4-28]
> 10 | 0.5 to 2 | – | N#Cc1c(-c2ccc(Cl)c(NC(=O)CNCC3CC3)c2)cc(-c2ccccc2O)nc1N [Example 4-30]
1 to 10 | 2 to 10 | – | N#Cc1c(-c2cccc(NC(=O)CCN3CCN(Cc4ccccc4)CC3)c2)cc(-c2ccccc2O)nc1N [Example 4-11]
1 to 10 | 0.5 to 2 | – | N#Cc1c(-c2cccc(NC(=O)CN3CCNCC3)c2)cc(-c2ccccc2O)nc1N [Example 4-07]
– | < 0.5 | 1 to 10 | CC(=O)Nc1ccc(-c2cc(-c3ccccc3O)nc(N)c2CO)cc1O [Example 8-05]
1 to 10 | 2 to 10 | – | N#Cc1c(-c2cccc(C(=O)NCCN3CCCCC3)c2)cc(-c2ccccc2O)nc1N [Example 6-1, 3-[2-amino-3-cyano-6-(2-hydroxyphenyl)-4-pyridinyl]-N-[2-(1-piperidinyl)ethyl]benzamide trifluoroacetate]
> 10 | 2 to 10 | – | N#Cc1c(-c2cccc(C(=O)O)c2)cc(-c2ccccc2O)nc1N [Example 5-1, Sodium 3-[2-amino-3-cyano-6-(2-hydroxyphenyl)-4-pyridinyl]benzoate]
1 to 10 | 0.5 to 2 | – | N#Cc1c(-c2cccc(NC(=O)CCNCC3CC3)c2)cc(-c2ccccc2O)nc1N [Example 4-21]
1 to 10 | 0.5 to 2 | – | Nc1nc(-c2ccccc2O)cc(-c2cccc(NC(=O)CCN3CCCCC3)c2)c1CO [Example 7-3, N-{3-[2-amino-3-(hydroxymethyl)-6-(2-hydroxyphenyl)-4-pyridinyl]phenyl}-3-(1-piperidinyl)propanamide]
> 10 | 0.5 to 2 | – | N#Cc1c(-c2cccc(NC(=O)CCN3CCCC(C(=O)O)C3)c2)cc(-c2ccccc2O)nc1N (centres unmarked) [Example 4-29]
1 to 10 | 0.5 to 2 | – | CCN1CCN(CC(=O)Nc2cccc(-c3cc(-c4ccccc4O)nc(N)c3C#N)c2)CC1 [Example 4-06]
< 1 | < 0.5 | – | CC(=O)Nc1ccc(-c2cc(-c3ccccc3O)nc(N)c2CO)cc1O [Example 8-04]
1 to 10 | < 0.5 | – | N#Cc1c(-c2ccccc2C(=O)NCCN2CCCCC2)cc(-c2ccccc2O)nc1N [Example 6-03]

Further lines, the compound ahead of its results:

Structure (SMILES) | IC50 ([1]; Homo sapiens, A549, 24 h) [µM] | IC50 (human IKK-β) [µM] | IC50 ([1]; 24 hrs) [µM]
N#Cc1c(-c2cccc(NC(=O)CCCC(=O)O)c2)cc(-c2ccccc2O)nc1N [Example 1-19] | > 10 | 0.5 to 2 | –
CN(C)c1ccc(-c2cc(-c3ccccc3O)nc(N)c2C#N)cc1NC(=O)CCN1CCCCC1 [Example 3-08] | 1 to 10 | < 0.5 | –
CC(C)C[C@H](N)C(=O)Nc1cc(-c2cc(-c3ccccc3O)nc(N)c2C#N)ccc1N1CCC[C@H]1CO [Example 3-11] | 1 to 10 | 0.5 to 2 | –
CC(=O)Nc1cccc(-c2cc(-c3ccccc3O)nc(N)c2C#N)c1 [Example 1-14] | > 10 | > 10 | –
N#Cc1c(-c2ccc(N3CCCCC3)c(NC(=O)CCN)c2)cc(-c2ccccc2O)nc1N [Example 3-03] | 1 to 10 | < 0.5 | –
N#Cc1c(-c2ccc(N)c(O)c2)cc(-c2ccccc2O)nc1N [Example 2-15] | 1 to 10 | < 0.5 | –
Cc1ccc(O)c(-c2cc(-c3cccc(NC(=O)C4CCC(=O)O4)c3)c(C#N)c(N)n2)c1 (centres unmarked) [Example 1-11] | > 10 | > 10 | –
N#Cc1c(-c2cccc(NC(=O)C3CCC(=O)N3)c2)cc(-c2ccccc2O)nc1N (centres unmarked) [Example 1-05] | > 10 | 2 to 10 | –
N#Cc1c(-c2cccc(NC(=O)C3CCC(=O)O3)c2)cc(-c2ccccc2O)nc1N (centres unmarked) [Example 1-1, N-{3-[2-amino-3-cyano-6-(2-hydroxyphenyl)-4-pyridinyl]phenyl}-5-oxotetrahydro-2-furancarboxamide] | – | 0.5 to 2 | 1 to 10
N#Cc1c(-c2cccc(N)c2)cc(-c2ncccc2O)nc1N [Example 1-21] | 1 to 10 | 2 to 10 | –
N#Cc1c(-c2ccc(Cl)c(NC(=O)CCN3CCCCC3)c2)cc(-c2ccccc2O)nc1N [Example 2-18] | > 10 | 0.5 to 2 | –
N#Cc1c(-c2ccc(NC(=O)CCN3CCCCC3)cc2)cc(-c2ccccc2O)nc1N [Example 2-05] | > 10 | 0.5 to 2 | –
N#Cc1c(-c2cc(NC(=O)CCN3CCCCC3)ccc2F)cc(-c2ccccc2O)nc1N [Example 2-14] | 1 to 10 | 0.5 to 2 | –
CCN(CC)c1ccc(-c2cc(-c3ccccc3O)nc(N)c2C#N)cc1NC(=O)CCN1CCCCC1 [Example 3-13] | 1 to 10 | 2 to 10 | –
N#Cc1c(-c2ccc(NC(=O)C(O)CCC(=O)O)cc2)cc(-c2ccccc2O)nc1N (centres unmarked) [Example 1-10] | > 10 | < 0.5 | –
N#Cc1c(-c2ccc(N3CCC(N)C3)c(NC(=O)CCN)c2)cc(-c2ccccc2O)nc1N (centres unmarked) [Example 3-02] | 1 to 10 | < 0.5 | –
N#Cc1c(-c2cccc(NC(=O)C(O)CCC(=O)O)c2)cc(-c2ncccc2O)nc1N (centres unmarked) [Example 1-22] | > 10 | 0.5 to 2 | –
